Experimental data as given in ChEMBL document CHEMBL5120784, “Discovery of a novel 2-aminopyrazine-3-carboxamide as a potent and selective inhibitor of Activin Receptor-Like Kinase-2 (ALK2) for the treatment of fibrodysplasia ossificans progressiva” (Bioorg Med Chem Lett, 2022).
Values after ≈ are worked out from the molar mass of the structure shown.

Assays:
[1] = Aqueous solubility of compound at pH 6.8; format: physicochemical
[2] = Permeability of compound by PAMPA assay; format: ADME; parameters: reference not given here
[3] = Microsomal stability in mouse liver microsomes assessed as clearance; format: ADME, Microsome
[4] = target: T1, Activin receptor type-1 (Homo sapiens, UniProt Q04771, R206H); assay: Inhibition of ALK2 R206H mutant (unknown origin) assessed as enzymatic activity by microfluidic mobility shift assay
[5] = target: T1, Activin receptor type-1; assay: Inhibition of ALK2 R206H mutant (unknown origin) transfected in BMP6-stimulated human HEK293 cells by luciferase reporter gene assay; format: cell-based
[6] = target: T2, Activin receptor type-1 (Homo sapiens, UniProt Q04771); assay: Inhibition of wild type ALK2 (unknown origin) assessed as enzymatic activity by microfluidic mobility shift assay
T2 sequence (Q04771 whole entry): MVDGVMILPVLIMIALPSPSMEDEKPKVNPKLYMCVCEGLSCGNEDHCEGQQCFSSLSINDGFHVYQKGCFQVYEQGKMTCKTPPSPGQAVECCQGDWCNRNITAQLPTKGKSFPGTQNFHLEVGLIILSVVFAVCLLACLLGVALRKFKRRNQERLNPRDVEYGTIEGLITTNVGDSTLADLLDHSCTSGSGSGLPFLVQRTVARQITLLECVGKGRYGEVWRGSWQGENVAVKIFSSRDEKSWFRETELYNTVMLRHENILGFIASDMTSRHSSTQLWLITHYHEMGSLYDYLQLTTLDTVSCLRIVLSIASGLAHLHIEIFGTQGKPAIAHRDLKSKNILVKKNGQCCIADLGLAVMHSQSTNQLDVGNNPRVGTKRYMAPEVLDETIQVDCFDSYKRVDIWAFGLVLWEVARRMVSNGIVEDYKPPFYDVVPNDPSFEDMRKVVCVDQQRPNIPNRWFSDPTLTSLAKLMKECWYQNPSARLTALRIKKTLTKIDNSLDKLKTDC

[7] = target: T3, Activin receptor type-1-like (Homo sapiens, UniProt P37023); assay: Inhibition of wild type ALK1 (unknown origin) assessed as enzymatic activity by microfluidic mobility shift assay
[8] = target: T4, Bone morphogenetic protein receptor type-1A (Homo sapiens, UniProt P36894); assay: Inhibition of wild type ALK3 (unknown origin) assessed as enzymatic activity using chemiluminescent substrate by ADP-Glo assay
[9] = target: T5, TGF-beta receptor type-1 (Homo sapiens, UniProt P36897); assay: Inhibition of wild type ALK5 (unknown origin) assessed as enzymatic activity by microfluidic mobility shift assay
T5 sequence (P36897 whole entry): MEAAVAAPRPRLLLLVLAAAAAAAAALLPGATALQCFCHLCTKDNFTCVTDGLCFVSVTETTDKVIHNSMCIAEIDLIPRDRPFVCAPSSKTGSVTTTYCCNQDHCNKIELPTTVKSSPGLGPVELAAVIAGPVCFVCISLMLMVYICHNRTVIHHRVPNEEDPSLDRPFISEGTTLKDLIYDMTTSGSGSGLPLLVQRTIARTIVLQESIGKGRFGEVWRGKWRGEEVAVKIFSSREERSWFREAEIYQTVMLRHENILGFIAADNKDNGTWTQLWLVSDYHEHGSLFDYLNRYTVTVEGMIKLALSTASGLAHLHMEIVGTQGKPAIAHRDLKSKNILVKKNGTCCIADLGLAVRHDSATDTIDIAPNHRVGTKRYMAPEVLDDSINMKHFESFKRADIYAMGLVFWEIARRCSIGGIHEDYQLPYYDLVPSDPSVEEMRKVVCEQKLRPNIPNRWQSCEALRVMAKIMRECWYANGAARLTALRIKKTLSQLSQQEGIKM

[10] = target: T6, Bone morphogenetic protein receptor type-1B (Homo sapiens, UniProt O00238); assay: Inhibition of wild type ALK6 (unknown origin) assessed as enzymatic activity using chemiluminescent substrate by ADP-Glo assay
[11] = species on record: Homo sapiens; assay: Selectivity ratio of IC50 for inhibition of wild type ALK2 (unknown origin) to IC50 for inhibition of ALK2 R206H mutant (unknown origin)
[12] = species on record: Homo sapiens; assay: Selectivity ratio of IC50 for inhibition of wild type ALK1 (unknown origin) to IC50 for inhibition of ALK2 R206H mutant (unknown origin)
[13] = species on record: Homo sapiens; assay: Selectivity ratio of IC50 for inhibition of wild type ALK3 (unknown origin) to IC50 for inhibition of ALK2 R206H mutant (unknown origin)
[14] = species on record: Homo sapiens; assay: Selectivity ratio of IC50 for inhibition of wild type ALK5 (unknown origin) to IC50 for Inhibition of ALK2 R206H mutant (unknown origin)
[15] = species on record: Homo sapiens; assay: Selectivity ratio of IC50 for inhibition of wild type ALK6 (unknown origin) to IC50 for inhibition of ALK2 R206H mutant (unknown origin)
[16] = target: T6, Bone morphogenetic protein receptor type-1B; assay: Binding affinity to wild type ALK6 (unknown origin) assessed as percent of control at 1 uM by Kinomescan method relative to control
[17] = target: T7, Activin receptor type-1 (Homo sapiens) (UniProt Q04771); assay: Binding affinity to wild type ALK2 (unknown origin) assessed as percent of control at 1 uM by Kinomescan method relative to control
T7 sequence (whole entry): T2 sequence (Q04771 whole entry)

[18] = target: T3, Activin receptor type-1-like; assay: Binding affinity to wild type ALK1 (unknown origin) assessed as percent of control at 1 uM by Kinomescan method relative to control
[19] = target: T4, Bone morphogenetic protein receptor type-1A; assay: Binding affinity to wild type ALK3 (unknown origin) assessed as percent of control at 1 uM by Kinomescan method relative to control
[20] = target: Serine/threonine-protein kinase 38 (Homo sapiens) (UniProt Q15208); assay: Binding affinity to wild type STK38 (unknown origin) assessed as percent of control at 1 uM by Kinomescan method relative to control
[21] = target: Interferon-induced, double-stranded RNA-activated protein kinase (Homo sapiens) (UniProt P19525); assay: Binding affinity to wild type EIF2AK2 (unknown origin) assessed as percent of control at 1 uM by Kinomescan method relative to control
[22] = target: Non-receptor tyrosine-protein kinase TYK2 (Homo sapiens) (UniProt P29597); assay: Binding affinity to wild type TYK2 JH2 domain (unknown origin) assessed as percent of control at 1 uM by Kinomescan method relative to control
[23] = target: Dual specificity protein kinase CLK2 (Homo sapiens) (UniProt P49760); assay: Binding affinity to wild type CLK2 (unknown origin) assessed as percent of control at 1 uM by Kinomescan method relative to control
[24] = target: Dual specificity protein kinase CLK1 (Homo sapiens) (UniProt P49759); assay: Binding affinity to wild type CLK1 (unknown origin) assessed as percent of control at 1 uM by Kinomescan method relative to control
Dual specificity protein kinase CLK1 (Homo sapiens), sequence (P49759 whole entry, looked up): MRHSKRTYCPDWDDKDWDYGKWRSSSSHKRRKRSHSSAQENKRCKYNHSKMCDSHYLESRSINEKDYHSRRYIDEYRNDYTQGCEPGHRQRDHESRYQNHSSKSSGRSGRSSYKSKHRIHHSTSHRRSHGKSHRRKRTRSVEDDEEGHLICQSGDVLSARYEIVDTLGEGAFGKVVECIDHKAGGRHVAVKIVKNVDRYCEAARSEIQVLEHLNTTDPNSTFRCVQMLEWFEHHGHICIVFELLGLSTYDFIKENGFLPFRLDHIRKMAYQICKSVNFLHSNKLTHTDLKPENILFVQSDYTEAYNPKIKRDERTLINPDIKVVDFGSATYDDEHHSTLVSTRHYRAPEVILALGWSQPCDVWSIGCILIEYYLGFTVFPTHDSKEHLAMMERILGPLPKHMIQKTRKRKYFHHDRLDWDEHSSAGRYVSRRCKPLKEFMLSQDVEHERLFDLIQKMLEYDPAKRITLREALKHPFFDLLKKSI

T1 sequence (Q04771 21-509 R206H limits assumed): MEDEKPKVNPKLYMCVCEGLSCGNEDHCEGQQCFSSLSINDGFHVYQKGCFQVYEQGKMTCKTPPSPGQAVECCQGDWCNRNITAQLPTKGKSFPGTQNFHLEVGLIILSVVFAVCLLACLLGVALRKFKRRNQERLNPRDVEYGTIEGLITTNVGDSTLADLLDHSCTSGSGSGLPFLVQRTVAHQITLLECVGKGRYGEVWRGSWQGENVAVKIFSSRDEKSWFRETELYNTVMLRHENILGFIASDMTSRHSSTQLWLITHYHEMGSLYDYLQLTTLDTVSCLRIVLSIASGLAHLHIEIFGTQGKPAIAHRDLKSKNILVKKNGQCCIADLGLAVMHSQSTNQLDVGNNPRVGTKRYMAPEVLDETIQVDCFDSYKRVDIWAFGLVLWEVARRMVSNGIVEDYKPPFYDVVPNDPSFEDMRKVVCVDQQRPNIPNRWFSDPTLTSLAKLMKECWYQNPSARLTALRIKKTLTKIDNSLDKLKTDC
T3 sequence (P37023 whole entry): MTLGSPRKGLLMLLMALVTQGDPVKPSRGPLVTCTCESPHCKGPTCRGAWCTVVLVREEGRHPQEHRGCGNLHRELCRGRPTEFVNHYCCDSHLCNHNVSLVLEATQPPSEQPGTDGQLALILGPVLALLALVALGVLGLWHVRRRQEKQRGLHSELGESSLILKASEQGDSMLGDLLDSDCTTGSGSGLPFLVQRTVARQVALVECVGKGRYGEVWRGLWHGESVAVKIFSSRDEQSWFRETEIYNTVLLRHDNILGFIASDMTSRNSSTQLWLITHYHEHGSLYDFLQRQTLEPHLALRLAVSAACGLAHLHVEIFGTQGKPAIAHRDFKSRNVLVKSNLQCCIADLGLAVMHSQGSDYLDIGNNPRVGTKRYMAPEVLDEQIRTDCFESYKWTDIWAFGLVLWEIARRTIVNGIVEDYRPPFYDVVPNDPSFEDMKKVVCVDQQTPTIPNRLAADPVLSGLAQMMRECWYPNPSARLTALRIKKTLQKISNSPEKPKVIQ
T6 sequence (O00238 whole entry): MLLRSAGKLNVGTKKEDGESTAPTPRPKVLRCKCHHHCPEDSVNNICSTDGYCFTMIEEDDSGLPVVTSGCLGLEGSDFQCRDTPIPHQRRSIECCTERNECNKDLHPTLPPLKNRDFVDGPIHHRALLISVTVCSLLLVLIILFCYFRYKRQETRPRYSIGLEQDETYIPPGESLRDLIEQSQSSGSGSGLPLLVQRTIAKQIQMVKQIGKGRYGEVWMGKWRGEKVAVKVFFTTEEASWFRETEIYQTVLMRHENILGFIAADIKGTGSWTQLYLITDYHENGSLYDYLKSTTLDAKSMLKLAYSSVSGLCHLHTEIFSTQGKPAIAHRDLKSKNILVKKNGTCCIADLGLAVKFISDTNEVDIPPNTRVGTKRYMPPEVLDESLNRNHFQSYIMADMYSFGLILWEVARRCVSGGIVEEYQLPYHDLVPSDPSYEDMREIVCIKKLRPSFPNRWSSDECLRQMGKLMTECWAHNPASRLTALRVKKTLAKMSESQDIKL
T4 sequence (P36894 whole entry): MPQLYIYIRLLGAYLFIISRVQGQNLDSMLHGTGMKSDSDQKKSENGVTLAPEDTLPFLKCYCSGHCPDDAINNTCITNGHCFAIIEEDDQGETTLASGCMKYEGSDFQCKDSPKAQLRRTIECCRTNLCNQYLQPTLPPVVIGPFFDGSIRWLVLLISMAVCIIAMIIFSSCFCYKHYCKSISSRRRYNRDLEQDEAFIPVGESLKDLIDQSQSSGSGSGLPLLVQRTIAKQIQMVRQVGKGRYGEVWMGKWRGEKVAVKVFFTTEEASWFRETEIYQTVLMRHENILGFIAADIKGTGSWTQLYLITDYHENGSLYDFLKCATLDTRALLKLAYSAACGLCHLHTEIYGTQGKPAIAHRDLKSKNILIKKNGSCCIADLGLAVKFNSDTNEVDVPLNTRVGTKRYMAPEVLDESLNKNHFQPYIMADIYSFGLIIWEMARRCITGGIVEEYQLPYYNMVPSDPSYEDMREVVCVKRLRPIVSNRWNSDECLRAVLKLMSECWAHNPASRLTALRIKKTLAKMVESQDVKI
Dual specificity protein kinase CLK2 (Homo sapiens), sequence (P49760 whole entry, looked up): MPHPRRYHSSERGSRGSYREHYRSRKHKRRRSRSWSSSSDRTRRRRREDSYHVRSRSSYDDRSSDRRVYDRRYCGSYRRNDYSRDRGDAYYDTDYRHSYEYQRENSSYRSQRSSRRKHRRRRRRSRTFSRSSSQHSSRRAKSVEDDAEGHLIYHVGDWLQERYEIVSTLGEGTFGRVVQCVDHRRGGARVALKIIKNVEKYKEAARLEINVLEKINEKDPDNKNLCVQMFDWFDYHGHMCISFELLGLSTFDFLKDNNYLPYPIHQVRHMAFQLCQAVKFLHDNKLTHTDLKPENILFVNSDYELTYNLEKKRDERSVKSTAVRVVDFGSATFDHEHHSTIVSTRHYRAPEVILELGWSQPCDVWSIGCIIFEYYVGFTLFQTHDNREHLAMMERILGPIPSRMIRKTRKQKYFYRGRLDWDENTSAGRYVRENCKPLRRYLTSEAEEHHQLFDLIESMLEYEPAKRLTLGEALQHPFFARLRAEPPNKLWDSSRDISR
Non-receptor tyrosine-protein kinase TYK2 (Homo sapiens), sequence (P29597 whole entry, the tested form may be a part): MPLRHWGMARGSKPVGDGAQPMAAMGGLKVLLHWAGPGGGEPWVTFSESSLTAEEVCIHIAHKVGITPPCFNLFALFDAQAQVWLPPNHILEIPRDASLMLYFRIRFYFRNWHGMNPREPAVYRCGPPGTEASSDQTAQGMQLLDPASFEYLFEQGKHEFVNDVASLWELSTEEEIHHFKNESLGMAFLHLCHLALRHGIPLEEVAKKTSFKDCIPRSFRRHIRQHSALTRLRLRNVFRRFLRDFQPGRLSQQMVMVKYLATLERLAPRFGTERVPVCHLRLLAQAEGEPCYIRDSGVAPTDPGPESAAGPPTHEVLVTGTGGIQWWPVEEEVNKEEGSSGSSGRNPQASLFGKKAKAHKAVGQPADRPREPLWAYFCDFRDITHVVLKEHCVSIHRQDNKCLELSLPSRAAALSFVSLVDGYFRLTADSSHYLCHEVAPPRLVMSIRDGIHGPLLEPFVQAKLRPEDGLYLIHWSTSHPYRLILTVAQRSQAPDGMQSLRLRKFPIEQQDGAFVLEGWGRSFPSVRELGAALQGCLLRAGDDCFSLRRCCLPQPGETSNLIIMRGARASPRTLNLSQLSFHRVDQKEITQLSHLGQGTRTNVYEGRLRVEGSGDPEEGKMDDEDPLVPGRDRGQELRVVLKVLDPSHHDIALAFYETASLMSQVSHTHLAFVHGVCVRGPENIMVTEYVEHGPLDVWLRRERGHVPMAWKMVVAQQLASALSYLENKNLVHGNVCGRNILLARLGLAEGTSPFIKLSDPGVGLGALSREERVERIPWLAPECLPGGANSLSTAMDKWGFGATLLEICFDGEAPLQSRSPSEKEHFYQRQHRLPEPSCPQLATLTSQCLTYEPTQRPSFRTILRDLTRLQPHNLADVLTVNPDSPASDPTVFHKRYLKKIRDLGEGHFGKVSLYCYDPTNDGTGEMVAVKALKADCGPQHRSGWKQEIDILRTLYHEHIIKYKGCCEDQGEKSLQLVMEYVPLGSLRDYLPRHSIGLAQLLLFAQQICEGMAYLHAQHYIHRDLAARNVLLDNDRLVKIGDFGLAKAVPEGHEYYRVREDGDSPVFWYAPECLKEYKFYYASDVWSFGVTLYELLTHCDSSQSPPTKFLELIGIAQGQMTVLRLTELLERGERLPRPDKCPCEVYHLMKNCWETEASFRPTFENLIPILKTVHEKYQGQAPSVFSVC
Serine/threonine-protein kinase 38 (Homo sapiens), sequence (Q15208 2-465 limits assumed): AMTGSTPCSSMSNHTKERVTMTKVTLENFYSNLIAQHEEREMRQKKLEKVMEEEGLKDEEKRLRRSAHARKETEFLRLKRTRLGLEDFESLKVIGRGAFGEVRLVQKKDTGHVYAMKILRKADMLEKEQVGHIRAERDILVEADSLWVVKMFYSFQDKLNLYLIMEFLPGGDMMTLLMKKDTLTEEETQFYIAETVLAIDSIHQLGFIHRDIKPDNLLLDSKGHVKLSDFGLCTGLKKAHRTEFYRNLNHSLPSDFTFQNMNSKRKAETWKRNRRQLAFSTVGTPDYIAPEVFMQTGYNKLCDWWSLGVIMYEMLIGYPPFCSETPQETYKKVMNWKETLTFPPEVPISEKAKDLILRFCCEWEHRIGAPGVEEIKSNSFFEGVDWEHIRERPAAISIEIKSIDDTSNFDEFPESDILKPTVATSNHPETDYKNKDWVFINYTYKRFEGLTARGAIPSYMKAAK

CN(C)Cc1ccc(-c2cnc(N)c(C(=O)NC3CCC(O)CC3)n2)cc1 (centres undefined)
solubility [1]: 850 µM (≈ 314 µg/mL)
permeability [2]: 94%
CLH [3]: 64 µL/min/mg

Nc1ncc(-c2ccc(CN3CCC(N4CCOCC4)CC3)cc2Cl)nc1C(=O)N[C@H]1CC[C@H](O)CC1
solubility [1]: > 1000 µM
permeability [2]: 96%
CLH [3]: 74 µL/min/mg

CCN(CC)C1CCN(Cc2ccc(-c3cnc(N)c(C(=O)N[C@H]4CC[C@H](O)CC4)n3)cc2)CC1
solubility [1]: > 1000 µM
permeability [2]: 61%
CLH [3]: < 10 µL/min/mg

CC(C)N1CCN(Cc2ccc(-c3cnc(N)c(C(=O)NC[C@@](C)(O)C(F)(F)F)n3)cc2)CC1
solubility [1]: > 1000 µM
permeability [2]: 99%
CLH [3]: 28 µL/min/mg

CCNC(=O)c1nc(-c2ccc(CN(C)C)cc2)cnc1N
solubility [1]: > 1000 µM
permeability [2]: 99%
CLH [3]: 373 µL/min/mg

CN(C)Cc1ccc(-c2cnc(N)c(C(=O)NC3CCCC3O)n2)cc1 (centres undefined)
solubility [1]: 940 µM (≈ 334 µg/mL)
permeability [2]: 99%
CLH [3]: 179 µL/min/mg

CN(C)Cc1ccc(-c2cnc(N)c(C(=O)NC[C@@](C)(O)C(F)(F)F)n2)cc1
solubility [1]: 510 µM (≈ 203 µg/mL)
permeability [2]: 99%
CLH [3]: 126 µL/min/mg

C[C@@](O)(CNC(=O)c1nc(-c2ccc(CN3CCS(=O)(=O)CC3)cc2)cnc1N)C(F)(F)F
solubility [1]: 4 µM (≈ 1.95 µg/mL)
permeability [2]: 45%
CLH [3]: 20 µL/min/mg

C[C@@](O)(CNC(=O)c1nc(-c2ccc(CN3CCNCC3)cc2)cnc1N)C(F)(F)F
solubility [1]: > 1000 µM
permeability [2]: 42%
CLH [3]: < 10 µL/min/mg

CC(C)N1CCN(Cc2ccc(-c3cnc(N)c(C(=O)N[C@H]4CC[C@H](O)CC4)n3)cc2)CC1
solubility [1]: 830 µM (≈ 376 µg/mL)
permeability [2]: 85%
CLH [3]: 12 µL/min/mg

C[C@]1(O)CC[C@H](NC(=O)c2nc(-c3ccc(CN4CCC(N5CCOCC5)CC4)cc3Cl)cnc2N)CC1
CLH [3]: 197 µL/min/mg

C[C@@](O)(CNC(=O)c1nc(-c2ccc(CN3CCCC3)cc2)cnc1N)C(F)(F)F
solubility [1]: > 1000 µM
permeability [2]: 99%
CLH [3]: 41 µL/min/mg

CC(C)NC(=O)c1nc(-c2ccc(CN(C)C)cc2)cnc1N
solubility [1]: > 1000 µM
permeability [2]: 100%
CLH [3]: 634 µL/min/mg

C[C@@](O)(CNC(=O)c1nc(-c2ccc(CN3CCOCC3)cc2)cnc1N)C(F)(F)F
solubility [1]: 190 µM (≈ 83.5 µg/mL)
permeability [2]: 99%
CLH [3]: 86 µL/min/mg

CN(C)Cc1ccc(-c2cnc(N)c(C(=O)NCC(O)C(F)(F)F)n2)cc1 (centres undefined)
solubility [1]: 880 µM (≈ 337 µg/mL)
permeability [2]: 93%
CLH [3]: 159 µL/min/mg

CC(O)CNC(=O)c1nc(-c2ccc(CN(C)C)cc2)cnc1N (racemic)
solubility [1]: > 1000 µM
permeability [2]: 77%
CLH [3]: 103 µL/min/mg

Nc1ncc(-c2ccc(CN3CCC(N4CCOCC4)CC3)cc2)nc1C(=O)N[C@H]1CC[C@H](O)CC1
solubility [1]: > 1000 µM
permeability [2]: 65%
CLH [3]: 19 µL/min/mg

Nc1ncc(-c2ccc(CN3CCC(N4CCOCC4)CC3)cc2Cl)nc1C(=O)NC12CCC(O)(CC1)CC2
IC50 [4]: 8 nM
IC50 [5]: 44 nM
solubility [1]: 420 µM (≈ 233 µg/mL)
permeability [2]: 99%
CLH [3]: 55 µL/min/mg
IC50 [6]: 12 nM
IC50 [7]: 120 nM
IC50 [8]: 280 nM
IC50 [9]: 2200 nM
IC50 [10]: 2100 nM
Ratio IC50 [11]: 1.5
Ratio IC50 [12]: 15
Ratio IC50 [13]: 35
Ratio IC50 [14]: 275
Ratio IC50 [15]: 263
Activity [16]: 0.7%
Activity [17]: 2%
Activity [18]: 8.5%
Activity [19]: 11%
Activity [20]: 14%
Activity [21]: 14%
Activity [22]: 24%
Activity [23]: 27%
Activity [24]: 29%

CN(C)Cc1ccc(-c2cnc(N)c(C(=O)NC3CCCCC3)n2)cc1
solubility [1]: 190 µM (≈ 67.2 µg/mL)
permeability [2]: 100%
CLH [3]: 839 µL/min/mg

Nc1ncc(-c2ccc(CN3CCC(N4CCCC4)CC3)cc2)nc1C(=O)N[C@H]1CC[C@H](O)CC1 (stereo in doubt; 19)
permeability [2]: 62%
CLH [3]: 23 µL/min/mg

CCN(CC)Cc1ccc(-c2cnc(N)c(C(=O)NC[C@@](C)(O)C(F)(F)F)n2)cc1
solubility [1]: > 1000 µM
permeability [2]: 99%
CLH [3]: 58 µL/min/mg

Nc1ncc(-c2ccc(CN3CCC(N4CCCC4)CC3)cc2)nc1C(=O)N[C@H]1CC[C@H](O)CC1 (stereo in doubt; 18)
solubility [1]: > 1000 µM
permeability [2]: 56%
CLH [3]: < 10 µL/min/mg
